{"source": "patent US20230110824A1", "about": "“FLUORESCENT PROBES FOR DETECTION OF CALCIFICATIONS” (TECHNISCHE UNIVERSITÄT BERLIN, priority 2020, published 2023)", "key": {"[1]": {"assay": "Staining of mouse rib sections with the dyes, epifluorescence microscopy", "type": "binding, mouse (C57BL/6)", "conditions": "for dependence of fluorescence intensity of rib staining on incubation time: 10 to 120 mins; for dependence of fluorescence intensity of rib staining on dye concentration: 1, 0.1 and 0.01 mg/mL in HEPES; for HAP-associated staining / binding to HAP in rib sections: 1 mg/mL", "experimental": "Mouse ribs (C57BL/6) were fixed in 4% paraformaldehyde (PFA). Ribs were processed for wax embedding through sequential immersion in increasing concentrations of ethanol followed by immersion in xylene/clearene and paraffin wax embedding. Rib sections (6 μm thickness) were dewaxed with xylene and rehydrated with decreasing concentrations of ethanol and distilled water (dH2O). Rib sections were incubated with a variety of either namely((4-(5,5-difluoro-1,3,7,9-tetramethyl-5H-414,514-dipyrrolo[1,2-c:2′,1′-f][1,3,2]diazaborinin-10-yl)phenyl)phosphonic acid) (BODIPY-PPA), 5,10,15,20-tetrakis[p-phenylphosphonicacid] porphyrin (p-H8TPPA) and 5,10,15,20-tetrakis[m-phenylphosphonic acid] porphyrin (m-H8TPPA) dyes. […] Meso-tetra(4-phosphorylphenyl)porphine, porph-tetra-meta-phenyl phosphonate, BODIPY-PPA; and BODIPY-PPA-2Et2 were all incubated for 120 mins when diluted to 1, 0.1 and 0.01 mg/mL in HEPES, and incubated at 1 mg/mL for 120, 60, 30, 20 and 10 mins. Images were obtained for up to two weeks after staining. p-H8TPPA-iPr8 and p-TBr3PPA-iPr2 were only incubated for 120 mins at 1 mg/mL, including an incubation with dimethyl sulfoxide (DMSO). Negative controls were included by incubating ribs with the buffers alone. Following incubation with the respective dyes, slides were washed with their respective buffers (3×5 mins) and counter stained with DAPI, diluted in PBS, for 20 mins. After washing with PBS (3×5 mins), slides were mounted with 70% glycerol, diluted in PBS. Images were acquired on a Leica DM5500 epifluorescent microscope, using a 20× objective. The exposure times used to capture these images were kept the same throughout imaging. Images were processed using the FIJI software.\nTo further probe their HAP binding properties, we have used laterally sectioned mouse ribs as an example of HAP, which were incubated with p-H8TPPA at concentrations ranging from 0.01 to 1.0 mg/mL in HEPES buffer for varying times at room temperature and imaged by fluorescence microscopy (for details see description of the figures), to assess HAP binding capability."}, "THP-1 monocytes": {"system": "THP-1 monocytes", "assay": "Cellular uptake / cell labeling of proliferating THP-1 monocytes, fluorescence emission scan", "type": "cell-based, human", "conditions": "loading buffer, 60 min, 420 nm excitation", "experimental": "In addition to the application on bone sections, the phenylphosphonic acid/esterified porphyrins' propensity for cellular uptake was tested on proliferating human cells (FIG. 15). Aiming to use phenylphosphonic acid functionalized porphyrins in in vivo applications, the negative charge on the deprotonated phosphonate might be a handicap by limiting cell permeability. Optional demasking of phosphonate esters in metabolic surroundings might occur, recreating the metal binding PhPO3^2-. This possibility led us to examine p-H8TPPA and p-H8TPPA-iPr8 suitability for in vivo cellular experiments by testing their permeability on proliferating human THP-1 monocytes.\nWe have treated THP-1 monocytes with the Phosphorylphenyl-modified porphyrins in loading buffer (10 mM HEPES, pH 7.35, 120 mM NaCl, 5.4 mM KCl, 5 mM glucose, 1.3 mM CaCl2, 1 mM MgCl2, 1 mM NaH2PO4, 0.3% bovine serum albumin) for 60 min. Excess fluorescence dye was removed by multiple washing steps before fluorescence emission scanning using 420 nm excitation (Tecan Infinite M200 reader; Tecan, Germany). […] We hypothesize that the phosphonates, being somewhat amphipathic, were able to penetrate the cell membrane, whereas the more nonpolar esters were not as efficient."}, "[2]": {"assay": "Precipitation / solubility of the dye in incubation buffers", "experimental": "Mouse ribs were incubated for 120 mins with p-TBr3PPA-iPr2 (5,10,15-tris[p-bromophenyl]-20-[p-phenyl-, bis(1-methylethyl) ester phosphonic acid] porphyrin) diluted to 1 mg/mL in different buffers.\nMouse ribs were incubated for 120 mins with p-H8TPPA-iPr8 phosphonate diester diluted to 1 mg/mL in different buffers."}, "[3]": {"assay": "Absorbance and fluorescence spectra in presence and absence of HAP (Flexstation 3 microplate reader)", "type": "binding", "experimental": "The absorbance (A) and fluorescence (B) spectra of 0.01 mg mL^−1p-H8TPPA in the presence (dashed lines) and absence (solid lines) of HAP. The dye was diluted to 0.01 mg mL^−1 in PBS (pH 7.4, green), TBS (pH 7.4, orange), HEPES (pH 7.4, purple) and d H2O with absorbance and fluorescence spectra obtained using the Flexstation 3 microplate reader.\nCharacterization of Probes: The structure and purity of the probes were characterized by liquid chromatography, infrared, NMR, and/or mass spectrometry. Their optical properties were characterized by absorption and fluorescence spectrophotometry in the presence and absence of authentic hydroxyapatite, whitlockite, and other doped apatites. The dyes were also tested on mouse ribs as an example of hydroxyapatite in tissue.\nThis is also reflected in the maximal peak of the fluorescence intensity (FIG. 14 B), with a shift from λem 646-648 nm for PBS, TBS and HEPES to λem 675 nm when diluted in dH2O. […] Previously reported bisphosphonate fluorophores had […] aliphatic carbons between the fluorescent core and HAP binding, therefore, such systems merely functioned as fluorescent labels with no change in emission due to HAP binding since they lacked synergistic interaction between the HAP and the fluorescent core. Phosphonic acids that have direct sp^2 bonds to the fluorescent core could extend the conjugation of the fluorescent core to the HAP and thereby could initiate changes in the ground and excited states resulting in quenching or enhancing the fluorescence emission."}, "[4]": {"system": "intestinal Caco-2 cell line", "conditions": "at high concentrations; cited from earlier work"}, "[5]": {"conditions": "1 mg/mL in HEPES, 120 mins, imaged up to 14 days / two weeks after staining"}}, "note": "Entries after “also recorded” stand apart in the source; their conditions may differ.", "data": [{"molecule": "((4-(5,5-difluoro-1,3,7,9-tetramethyl-5H-414,514-dipyrrolo[1,2-c:2′,1′-f][1,3,2]diazaborinin-10-yl)phenyl)phosphonic acid) [BODIPY-PPA]", "values": [{"measurement": "dependence of fluorescence intensity of rib staining on incubation time", "setting": "[1]; 1 mg/mL in HEPES", "result": "decrease in fluorescence intensity is observed for decreasing incubation times"}, {"measurement": "change of fluorescence intensity after staining", "setting": "[1]; [5]", "result": "only a very slight decrease in fluorescence intensity"}, {"measurement": "dependence of fluorescence intensity of rib staining on dye concentration", "setting": "[1]; 120 mins", "result": "strong concentration dependency of staining"}]}, {"molecule": "CC(C)OP(=O)(OC(C)C)c1ccc(-c2c3nc(c(-c4ccc(P(=O)(OC(C)C)OC(C)C)cc4)c4ccc([nH]4)c(-c4ccc(P(=O)(OC(C)C)OC(C)C)cc4)c4nc(c(-c5ccc(P(=O)(OC(C)C)OC(C)C)cc5)c5ccc2[nH]5)C=C4)C=C3)cc1", "note": "[p-H8TPPA-iPr8]", "values": [{"measurement": "cell labeling / passage through the cellular membrane", "setting": "THP-1 monocytes", "result": "hindered their passage through the cellular membrane"}, {"measurement": "HAP-associated staining / binding to HAP in rib sections", "setting": "[1]; 120 mins", "result": "no binding to HAP occurring; also recorded: complete lack of HAP-associated staining"}, {"measurement": "solubility in the aqueous", "setting": "[2]", "result": "dramatically reduced their solubilities"}]}, {"molecule": "O=P(O)(O)c1ccc(-c2c3nc(c(-c4ccc(P(=O)(O)O)cc4)c4ccc([nH]4)c(-c4ccc(P(=O)(O)O)cc4)c4nc(c(-c5ccc(P(=O)(O)O)cc5)c5ccc2[nH]5)C=C4)C=C3)cc1", "note": "[p-H8TPPA, 5,10,15,20-tetrakis[p-phenylphosphonic acid] porphyrin]", "values": [{"measurement": "fluorescence intensity upon HAP binding", "setting": "[3]", "result": "increased"}, {"measurement": "increase of fluorescence intensity upon HAP binding", "setting": "[3]; 0.01 mg mL^-1 in HEPES pH 7.4", "result": 2.0, "unit": "fold"}, {"measurement": "increase of fluorescence intensity upon HAP binding", "setting": "[3]; 0.01 mg mL^-1 in PBS pH 7.4", "result": 1.8, "unit": "fold"}, {"measurement": "increase of fluorescence intensity upon HAP binding", "setting": "[3]; 0.01 mg mL^-1 in TBS pH 7.4", "result": 2.0, "unit": "fold"}, {"measurement": "increase of fluorescence intensity upon HAP binding", "setting": "[3]; 0.01 mg mL^-1 in d H2O", "result": 1.6, "unit": "fold"}, {"measurement": "maximal peak of the fluorescence intensity (λem)", "setting": "[3]; PBS, TBS and HEPES", "result": "646-648 nm"}, {"measurement": "absorbance peak maximum", "setting": "[3]; PBS, TBS and HEPES (before shift)", "result": 415, "unit": "nm"}, {"measurement": "absorbance peak maximum", "setting": "[3]; diluted in dH2O", "result": 435, "unit": "nm"}, {"measurement": "maximal peak of the fluorescence intensity (λem)", "setting": "[3]; diluted in dH2O", "result": 675, "unit": "nm"}, {"measurement": "cell labeling / passage through the cellular membrane", "setting": "THP-1 monocytes", "result": "much more efficient in cell labeling; also recorded: can travel through the cellular membrane"}, {"measurement": "fluorescent signal of stained ribs", "setting": "[1]; 0.1 mg/mL in HEPES", "result": "clear fluorescent signal"}, {"measurement": "fluorescent signal of stained ribs", "setting": "[1]; 1 mg/mL diluted in dH2O", "result": "no fluorescent signal"}, {"measurement": "dependence of fluorescence intensity of rib staining on incubation time", "setting": "[1]; 1 mg/mL in HEPES", "result": "clear increase in fluorescence intensity with an increasing incubation time"}, {"measurement": "difference of fluorescence intensity between buffers", "setting": "[1]; 1 mg/mL in HEPES, PBS, TBS", "result": "no clear difference"}, {"measurement": "change of fluorescence intensity after staining", "setting": "[1]; 1 mg/mL in HEPES, day of staining vs 7 days later", "result": "noticeable decrease in fluorescence intensity"}, {"measurement": "fluorescent signal of stained ribs compared to HEPES only negative control", "setting": "[1]; 1 mg/mL in HEPES, incubated for 10 mins", "result": "clear fluorescent signal"}, {"measurement": "HAP-associated staining / binding to HAP in rib sections", "setting": "[1]; 120 mins", "result": "specific for hydroxyapatite"}, {"measurement": "dependence of fluorescence intensity of rib staining on dye concentration", "setting": "[1]; 120 mins", "result": "binds to HAP with a concentration dependence"}, {"measurement": "fluorescent signal after staining", "setting": "[1]; diluted in PBS, after two weeks", "result": "weak fluorescent signal"}, {"measurement": "fluorescent signal after staining", "setting": "[1]; diluted in PBS, one week after staining", "result": "fluorescent signal above background signal"}, {"measurement": "fluorescent signal after staining", "setting": "[1]; diluted in TBS, one week after staining", "result": "fluorescent signal above background signal"}, {"measurement": "toxicity for an intestinal cell line", "setting": "[4]", "result": "no toxicity"}]}, {"molecule": "CC(C)OP(=O)(OC(C)C)c1ccc(-c2c3nc(c(-c4ccc(Br)cc4)c4ccc([nH]4)c(-c4ccc(Br)cc4)c4nc(c(-c5ccc(Br)cc5)c5ccc2[nH]5)C=C4)C=C3)cc1", "note": "[p-TBr3PPA-iPr2, 5,10,15-tris[p-bromophenyl]-20-[p-phenyl-, bis(1-methylethyl) esterphosphonic acid] porphyrin]", "values": [{"measurement": "HAP-associated staining / binding to HAP in rib sections", "setting": "[1]; 120 mins", "result": "lack of HAP-associated staining; also recorded: no binding to HAP occurring"}, {"measurement": "behaviour of the dye during incubation", "setting": "[2]; 1 mg/mL in DMSO", "result": "precipitation of the dye"}, {"measurement": "behaviour of the dye during the incubation period", "setting": "[2]; 1 mg/mL in HEPES, PBS, TBS and dH2O, 120 mins", "result": "precipitated"}]}, {"molecule": "O=P(O)(O)c1cccc(-c2c3nc(c(-c4cccc(P(=O)(O)O)c4)c4ccc([nH]4)c(-c4cccc(P(=O)(O)O)c4)c4nc(c(-c5cccc(P(=O)(O)O)c5)c5ccc2[nH]5)C=C4)C=C3)c1", "note": "[m-H8TPPA, 5,10,15,20-tetrakis[m-phenylphosphonic acid] porphyrin]", "values": [{"measurement": "dependence of fluorescence intensity of rib staining on incubation time", "setting": "[1]; 1 mg/mL in HEPES", "result": "no clear difference in fluorescence intensity"}, {"measurement": "change of fluorescence intensity after staining", "setting": "[1]; [5]", "result": "no noticeable decrease in fluorescence intensity"}, {"measurement": "dependence of fluorescence intensity of rib staining on dye concentration", "setting": "[1]; 120 mins", "result": "little to no difference in the fluorescent intensity"}, {"measurement": "duration of fluorescence of stained ribs", "setting": "[1]; compared to p-H8TPPA", "result": "longer fluorescence period"}]}]}
